The test system of this experiment is cornea. The experiment is described as follows: Digital corneal crosslinking: photoinitiator solution dropped on the cornea, then selective local irradiation through a digital micromirror device. The format is in vivo. The protocol: A digital corneal crosslinking method to adjust the corneal curvature wherein a composition comprising a photoinitiator compound is administered to the corneal stromal of the subject, and the corneal is selectively and locally irradiated by utilizing digital micromirror device (DMD) controlled by a computer, whereby the corneal curvature is altered.
The epithelial tissue of an area of 7 mm diameter in the middle of the cornea was removed after superficial anesthesia. A dextran solution of 200 g/L with 1 g/L riboflavin was dropped to corneal surface in batches. The location of the riboflavin diffused into the corneal surface was observed by cobalt blue light of a slit lamp. Digital corneal crosslinking device was used to selectively irradiate the local area of the cornea. The light's wavelength is 365 nm, the irradiation area is shown in FIG. 2, the light power is 1.2 mW/cm^2, irradiation time is 5 minutes.
During irradiation process, a photoinitiator solution and superficial anesthesia were used to wash the corneal surface in phases. Antibiotic eye formulations were applied to the eye and corneal contact lens were used until the corneal epithelium was healed.
The epithelial tissue of an area of 7 mm diameter in the middle of the cornea was removed after superficial anesthesia. A dextran solution of 200 g/L with 1 g/L riboflavin sodium phosphate was dropped to corneal surface in batches. The location of the riboflavin diffused into the corneal surface was observed by cobalt blue light of a slit lamp. Digital corneal crosslinking device was used to selectively irradiate the local area of the cornea. The light's wavelength is 365 nm, the irradiation area is the same like that in example 1, the light power is 1.2 mW/cm^2, irradiation time is 5 minutes.
The epithelial tissue of an area of 5-9 mm diameter in the middle of the cornea was removed after superficial anesthesia. A dextran solution of 200 g/L with 1 g/L eosin Y was dropped to corneal surface in batches. The location of the eosin Y diffused into the corneal surface was observed by cobalt blue light of a slit lamp. Digital corneal crosslinking device was used to selectively irradiate the local area of the cornea. The light's wavelength is 550 nm, the irradiation area is shown in FIG. 3, the light power is 1.2 mW/cm^2, irradiation time is 5 minutes.
During irradiation process, the eosin Y solution and superficial anesthesia were used to wash the corneal surface in phases. Antibiotic eye formulations were applied to the eye and corneal contact lens were used until the corneal epithelium was healed.
The epithelial tissue of the cornea was removed and a dextran solution of 200 g/L with 1 g/L riboflavin was dropped to corneal surface in batches. The location of the riboflavin diffused into the corneal surface was observed by cobalt blue light of a slit lamp. Digital corneal crosslinking device was used to selectively irradiate the local area of the cornea. The light's wavelength is 365 nm, the irradiation area is shown in FIG. 4, the light power is 1.2 mW/cm^2, irradiation time is 5 minutes.
The epithelial tissue of the cornea was kept intact and a dextran solution of 200 g/L with 1.5 g/L EDTA sodium and 1.5 g/L riboflavin was dropped to corneal surface in batches. The location of the riboflavin diffused into the corneal surface was observed by cobalt blue light of a slit lamp. Digital corneal crosslinking device was used to selectively irradiate the local area of the cornea.

SMILES strings stand for the structures.

In the case of `Cc1cc2nc3c(=O)[nH]c(=O)nc-3n(C[C@H](O)[C@H](O)[C@H](O)CO)c2cc1C` [riboflavin], the corneal surface curvature entry (Example 1: epithelium removed (7 mm), dextran solution 200 g/L with 1 g/L riboflavin, 365 nm, irradiation area of FIG. 2, 1.2 mW/cm^2, 5 minutes) is recorded as “increased”. Where the note is “Example 4: epithelium removed, dextran solution 200 g/L with 1 g/L riboflavin, 365 nm, irradiation area of FIG. 4, 1.2 mW/cm^2, 5 minutes”, the corneal curvature entry is listed as “locally changed”. The “result (corneal surface curvature)” value (Example 5: epithelium kept intact, dextran solution 200 g/L with 1.5 g/L EDTA sodium and 1.5 g/L riboflavin, 365 nm, irradiation area as example 1, 1.2 mW/cm^2, 10 minutes) is “the same as example 1”.

Turning to `Cc1cc2nc3c(=O)[nH]c(=O)nc-3n(C[C@H](O)[C@H](O)[C@H](O)COP(=O)(O)O)c2cc1C` [riboflavin sodium phosphate], the corneal surface curvature result (Example 2: epithelium removed (7 mm), dextran solution 200 g/L with 1 g/L riboflavin sodium phosphate, 365 nm, irradiation area as example 1, 1.2 mW/cm^2, 5 minutes) was “the same as example 1”. Regarding `O=C([O-])c1ccccc1-c1c2cc(Br)c(=O)c(Br)c-2oc2c(Br)c([O-])c(Br)cc12.[Na+].[Na+]` [eosin Y], the corneal surface curvature entry (Example 3: epithelium removed (5-9 mm), dextran solution 200 g/L with 1 g/L eosin Y, 550 nm, irradiation area of FIG. 3, 1.2 mW/cm^2, 5 minutes) is “decreased”.

The record behind these values is patent US10463735B2, “Method and apparatus for adjusting corneal curvature through digital corneal crosslinking” (ZHEJIANG UNIVERSITY, priority 2016, dated 2019).
